The subject of assay [1] is greenhouse red spider mite (Tetranychus urticae). In words: Tetranychus Test, OP-resistant/spray treatment (Example I). It counts as in vivo. Particulars: 100 ppm active compound, bean leaf discs sprayed, OP-resistant. How it is done: Solvents: 78 parts by weight of acetone
• 1.5 parts by weight of dimethylformamide Emulsifier: 0.5 part by weight of alkylaryl polyglycol ether
After the desired period of time, the activity in % is determined.

For assay [2], the system named is larvae of the mustard beetle (Phaedon cochleariae). In words: Phaedon Larvae Test (Example G). Particulars: 100 ppm active compound, cabbage leaves dipped.
The test system of assay [3] is caterpillars of the armyworm (Spodoptera frugiperda). Description: Spodoptera frugiperda Test (Example H). The following applies: 100 ppm active compound, cabbage leaves dipped. It counts as in vivo. An excerpt:
(§1) Solvent: 7 parts by weight of dimethylformamide

Assay [4] has as its system larvae of the mustard beetle (Phaedon cochleariae). Description: Phaedon Larvae Test (Example C). The following applies: cabbage leaves dipped.
Assay [5] concerns cotton aphid (Aphis gossypii). In words: Aphis gossypii Test (Example A). It counts as in vivo. Particulars: 20 ppm active compound, cotton leaves dipped.
Description: as §1

The test system of assay [6] is Heliothis virescens caterpillars. In words: Heliothis virescens Test (Example B). It counts as in vivo. Particulars: 500 ppm active compound, soybean shoots dipped.
Description: as §1

The test system of assay [7] is caterpillars of the diamondback moth (Plutella xylostella/resistant strain). Description: Plutella Test, resistant strain (Example D). It counts as in vivo. The following applies: 4 ppm active compound, cabbage leaves dipped.
Description: as §1

The subject of assay [8] is peach aphid (Myzus persicae). Description: Myzus Test (Example F). The class given is in vivo. The following applies: 4 ppm active compound, cabbage leaves dipped.
Description: as §1

Assay [9] concerns greenhouse red spider mite (Tetranychus urticae). In words: Tetranychus Test, OP-resistant/dip treatment (Example J). The class given is in vivo. The following applies: 4 ppm active compound, bean plants dipped, OP-resistant.

For the molecule `CCOC1CCC2(CC1)NC(=O)C(c1cc(C)ccc1Cl)=C2OC(=O)C(C)C` (stereo not drawn), the “Kill rate in % after 4^d” value in assay [1] is 70%.

`CO[C@H]1CC[C@]2(CC1)NC(=O)C(c1cc(C)ccc1C)=C2O` [Example I-a-1]: the “Kill rate in % after 7^d” value in assay [2] is listed as 100%; in assay [3], 50%.

As for `CCOC(=O)OC1=C(c2cc(C)ccc2C)C(=O)N[C@]12CC[C@@H](OC)CC2` [Example I-c-1], the “Kill rate in % after 7^d” value in [4] (20 ppm active compound) is 80%; in assay [4] (100 ppm active compound), 100%. Further, in assay [5], the “Kill rate in % after 6^d” value was 90%.

As to `CCOC(=O)OC1=C(c2cc(C)ccc2Br)C(=O)N[C@]12CC[C@@H](OC)CC2` [Example I-c-2], the “Kill rate in % after 6^d” value in [6] and in [7] was 100% throughout.

For `CCOC(=O)OC1=C(c2cc(Br)ccc2C)C(=O)N[C@]12CC[C@@H](OC)CC2` [Example I-c-4], the entries for the “Kill rate in % after 7^d” value in [2], in [3] and in assay [9] were 25%, 20% and 40%, respectively. The “Kill rate in % after 6^d” value in assay [8] is 50%.

The record behind these values is US7638547B2, “Cis-alkoxy-substituted spirocyclic 1H-pyrrolidine-2,4-dione derivatives serving as pesticides” (Bayer CropScience AG, priority 2002, dated 2009).
